Results from patent publication US11787865B2, “Bifunctional molecules for lysosomal targeting and related compositions and methods” (The Board of Trustees of the Leland Stanford Junior …, priority 2018, dated 2023).

What was measured:
mouse IgG (IgG-AF647) = experiment: Cellular uptake of IgG-AF647 in HUH7 cells; format: cell-based; conditions: HUH7 cells incubated with inhibitor
Protocol: To assess whether a bifunctional molecule comprising ASGPR ligands could indeed shuttle cargo to lysosomes in hepatocytes, an assay schematically illustrated in FIG. 21 was employed. A bifunctional molecule comprising an anti-mouse IgG antibody conjugated to a poly(GalNAc-co-Ala) polymer was tested to determine whether the bifunctional molecule could shuttle extracellular fluorescent-labeled mouse IgG (IgG-AF647) into the intracellular compartment of hepatocytes. […] HEPG2 cells (hepatocellular carcinoma cell line) were incubated with 50 nM IgG-AF647 and 25 nM of anti-mouse conjugates for 1 hour. Cellular uptake was analyzed by flow cytometry. As shown by the bar graph, an approximately 8-fold increase in cell fluorescence was observed using the GalNAc-containing conjugate while the M6Pn-containing conjugate induced 2-fold increase over background.
Shown in FIG. 22 are results from the assay described for FIG. 21 but in HUH7 cells (another hepatocellular carcinoma cell line). […] In addition, controls were included in which the cells were incubated with M6PR or ASGPR inhibitors (monomeric M6P (mM6P) and monomeric GalNAc (mGalNAc), respectively).

[1] = target: cation independent M6PR (CIM6PR) (Homo sapiens, UniProt P11717); conditions: relative to mannose-6-phosphate glycans; cited from earlier work
Sequence of cation independent M6PR (CIM6PR) (P11717 41-2491): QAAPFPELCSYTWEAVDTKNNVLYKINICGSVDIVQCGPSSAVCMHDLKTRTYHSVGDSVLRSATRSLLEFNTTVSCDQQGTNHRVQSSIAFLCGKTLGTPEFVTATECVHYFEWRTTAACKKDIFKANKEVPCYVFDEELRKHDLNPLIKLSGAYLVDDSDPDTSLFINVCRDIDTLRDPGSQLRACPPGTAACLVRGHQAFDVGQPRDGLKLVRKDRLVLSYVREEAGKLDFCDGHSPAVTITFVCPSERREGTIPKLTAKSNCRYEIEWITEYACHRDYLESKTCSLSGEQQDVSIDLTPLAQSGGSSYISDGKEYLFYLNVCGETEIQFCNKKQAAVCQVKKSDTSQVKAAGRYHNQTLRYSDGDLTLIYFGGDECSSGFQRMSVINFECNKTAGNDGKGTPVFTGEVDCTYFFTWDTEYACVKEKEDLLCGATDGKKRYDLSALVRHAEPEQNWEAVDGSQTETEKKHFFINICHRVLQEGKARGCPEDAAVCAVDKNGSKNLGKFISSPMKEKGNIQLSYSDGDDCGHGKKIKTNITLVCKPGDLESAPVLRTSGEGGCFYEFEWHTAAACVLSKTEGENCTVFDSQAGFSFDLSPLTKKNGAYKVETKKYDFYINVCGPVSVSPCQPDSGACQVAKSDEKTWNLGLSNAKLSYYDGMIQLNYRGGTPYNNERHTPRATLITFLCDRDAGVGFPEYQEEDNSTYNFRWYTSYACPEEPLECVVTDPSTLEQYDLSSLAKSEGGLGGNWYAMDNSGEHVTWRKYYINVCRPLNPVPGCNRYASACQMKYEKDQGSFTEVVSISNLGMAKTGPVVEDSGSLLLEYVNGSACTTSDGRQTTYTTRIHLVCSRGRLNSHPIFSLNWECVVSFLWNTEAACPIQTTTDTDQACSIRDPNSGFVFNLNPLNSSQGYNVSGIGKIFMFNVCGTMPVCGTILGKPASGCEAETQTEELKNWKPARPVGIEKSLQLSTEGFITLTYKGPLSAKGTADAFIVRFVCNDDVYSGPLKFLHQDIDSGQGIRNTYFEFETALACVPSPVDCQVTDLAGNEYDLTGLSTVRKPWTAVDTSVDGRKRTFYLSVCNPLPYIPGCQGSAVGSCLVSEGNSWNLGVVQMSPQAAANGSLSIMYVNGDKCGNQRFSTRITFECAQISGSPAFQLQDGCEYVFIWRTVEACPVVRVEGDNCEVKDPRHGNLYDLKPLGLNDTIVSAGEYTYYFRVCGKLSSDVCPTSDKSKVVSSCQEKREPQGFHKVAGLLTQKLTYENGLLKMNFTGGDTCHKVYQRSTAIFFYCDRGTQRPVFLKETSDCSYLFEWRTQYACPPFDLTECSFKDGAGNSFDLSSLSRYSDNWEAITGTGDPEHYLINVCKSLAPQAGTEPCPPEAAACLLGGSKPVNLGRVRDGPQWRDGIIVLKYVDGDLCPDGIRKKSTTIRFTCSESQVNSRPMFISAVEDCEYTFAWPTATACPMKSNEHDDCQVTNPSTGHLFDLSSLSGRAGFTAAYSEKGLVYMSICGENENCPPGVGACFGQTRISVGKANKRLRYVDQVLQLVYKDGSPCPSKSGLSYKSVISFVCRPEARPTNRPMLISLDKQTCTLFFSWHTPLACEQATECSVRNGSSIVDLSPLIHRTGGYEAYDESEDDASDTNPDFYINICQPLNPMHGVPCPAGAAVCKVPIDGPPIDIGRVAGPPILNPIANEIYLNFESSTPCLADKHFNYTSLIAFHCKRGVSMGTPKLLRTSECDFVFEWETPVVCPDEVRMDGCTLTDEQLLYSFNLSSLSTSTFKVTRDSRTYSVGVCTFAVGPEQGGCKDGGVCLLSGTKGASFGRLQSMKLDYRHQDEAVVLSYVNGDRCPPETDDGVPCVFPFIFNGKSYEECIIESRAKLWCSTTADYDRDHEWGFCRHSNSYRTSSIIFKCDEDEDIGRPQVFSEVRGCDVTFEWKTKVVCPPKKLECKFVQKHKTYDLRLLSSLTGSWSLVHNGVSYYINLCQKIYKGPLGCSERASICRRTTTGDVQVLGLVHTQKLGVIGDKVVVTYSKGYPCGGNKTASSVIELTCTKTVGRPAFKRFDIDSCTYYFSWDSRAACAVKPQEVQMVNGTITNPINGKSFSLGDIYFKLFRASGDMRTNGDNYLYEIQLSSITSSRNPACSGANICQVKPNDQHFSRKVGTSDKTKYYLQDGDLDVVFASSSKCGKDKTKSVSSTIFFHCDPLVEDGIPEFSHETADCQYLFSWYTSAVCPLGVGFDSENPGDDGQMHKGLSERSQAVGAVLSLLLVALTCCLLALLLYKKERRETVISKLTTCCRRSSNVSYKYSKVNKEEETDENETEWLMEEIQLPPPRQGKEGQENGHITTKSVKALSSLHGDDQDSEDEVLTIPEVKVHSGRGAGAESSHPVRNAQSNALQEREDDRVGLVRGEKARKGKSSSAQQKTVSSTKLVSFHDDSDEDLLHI

[2] = cited from earlier work

CC(=O)N[C@H]1C(O)O[C@H](CO)[C@H](O)[C@@H]1O (mixture of isomers) [mGalNAc, monomeric GalNAc]
uptake of IgG-AF647 with conjugates in presence of M6PR or ASGPR inhibitor (mouse IgG (IgG-AF647)): Uptake was reduced

C=CC(=O)OC[C@@H](O)[C@@H](O)[C@H](O)[C@H](O)C=O [Mannose-6-acrylate glycans, Mannose-6-acrylate]
relative binding affinity for the CIM6PR, compared to mannose-6-phosphate glycans [1]: 0.7
serum stability compared to mannose-6-phosphate glycans [2]: better serum stability

O=P(O)(O)OC[C@H]1OC(O)[C@@H](O)[C@@H](O)[C@@H]1O (some centres unmarked) [mM6P, monomeric M6P]
uptake of IgG-AF647 with conjugates in presence of M6PR or ASGPR inhibitor (mouse IgG (IgG-AF647)): Uptake was reduced

Mannose-6-carboxylate [Mannose-6-carboxylate glycans]
relative binding affinity for the CIM6PR, compared to mannose-6-phosphate glycans [1]: 0.3
